Experimental data published in patent US20230218632A1, “CYCLIC SULFONAMIDE DERIVATIVES AS TRAP1 MODULATORS AND USES THEREOF” (Amathus Therapeutics, Inc., priority 2020, published 2023).

Columns and labels:
[1] = biological target: T1, nanoLuc TRAP1 (Homo sapiens, UniProt Q12931); assay: NanoBRET in-cell target engagement assay; format: binding; conditions: probe-385, 1 µM; live SHSY5Y cells; FIG. 2
T1 construct: expressed in transfected cells; host or cells: SH-SY5Y cells, transient transfection with FuGENE HD
T1 sequence (Q12931 60-704): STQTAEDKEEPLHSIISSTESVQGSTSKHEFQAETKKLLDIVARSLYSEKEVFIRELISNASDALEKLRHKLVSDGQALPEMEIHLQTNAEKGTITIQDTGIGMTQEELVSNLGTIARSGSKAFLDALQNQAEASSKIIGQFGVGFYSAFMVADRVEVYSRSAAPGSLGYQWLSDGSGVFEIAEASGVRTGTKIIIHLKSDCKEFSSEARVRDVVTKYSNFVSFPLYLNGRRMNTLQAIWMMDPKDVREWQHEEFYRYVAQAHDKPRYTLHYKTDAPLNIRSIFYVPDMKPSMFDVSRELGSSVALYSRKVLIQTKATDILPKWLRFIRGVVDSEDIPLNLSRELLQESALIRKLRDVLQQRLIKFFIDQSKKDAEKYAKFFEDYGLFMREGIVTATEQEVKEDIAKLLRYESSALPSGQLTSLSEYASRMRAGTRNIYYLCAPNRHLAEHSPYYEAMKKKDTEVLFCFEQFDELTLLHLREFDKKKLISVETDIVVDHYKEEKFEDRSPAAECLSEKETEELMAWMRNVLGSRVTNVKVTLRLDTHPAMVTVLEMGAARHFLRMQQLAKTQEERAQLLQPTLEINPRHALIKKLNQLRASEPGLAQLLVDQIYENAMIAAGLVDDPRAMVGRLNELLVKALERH
Procedure: In-cell target engagement assays were performed as described in Robers M.B. et al. (2019) Quantitative, Real-Time Measurements of Intracellular Target Engagement Using Energy Transfer. In: Ziegler S., Waldmann H. (eds) Systems Chemical Biology. Methods in Molecular Biology, vol 1888. Humana Press, New York, NY; Machleidt et al., ACS Chem. Biol. 2015, 10, 8, 1797-1804; or Vasta et al., Cell Chemical Biology 25, 206-214, Feb. 15, 2018; or as described herein.
Below is a protocol for transient transfection of SHSY5Y cells with NanoLuc® fusions. • 1. Cultivate SHSY5Y cells appropriately prior to assay in MEM w NEAA supplemented with 10% FBS. • 2. Remove medium from cell flask via aspiration, trypsinize, and allow cells to dissociate from the flask. • 3. Neutralize trypsin using growth medium and pellet cells via centrifugation at 200 g for 5 minutes. • 4. Aspirate medium and re-suspend cells into a single cell suspension using complete cell culture medium. • 5. Adjust the cell density to 300 K/mL in cell culture medium in a sterile, conical tube. • 6. Prepare lipid:DNA complexes as follows (this covers two assay plates, adjust numbers for more plates) • a. Prepare a 10 µg/mL solution of DNA in Opti-MEM without serum. This solution should contain the following ratios of carrier DNA and DNA encoding NanoLuc® fusion. • i. 5.0 µg/mL of Transfection Carrier DNA (pGEM) • ii. […]

[2] = tested on: mIMCD3 Pkd1 KO cells; assay: Mouse cell derived cyst assay; format: cell-based; conditions: Pkd 1 KO mouse cell derived cyst forming assay; FIG. 6
Procedure: Mouse cell derived cyst assays were performed as described in Booij, Tijmen H et al., SLAS discovery: advancing life sciences R & D vol. 22,8 (2017): 974-984, or as described below.
Murine inner medullary collecting duct cell line (mIMCD3 Pkd1^-/- cells) • mIMCD3 Pkd1 KO cells were seeded in 384 wells plates in extracellular matrix. • 4 days after seeding, cultures were co-exposed to treatments and stimuli (2.5 µM forskolin); • After 72 h, cultures were fixed, stained for nuclei and actin cytoskeleton and imaged with 4x magnification; and • Image analysis of the 3D stack was done using Ominer™ image analysis software.

- displacement of nanoBRET tracer [1]: displacing the nanoBRET tracer molecule
SMILES: O=C(Nc1ccc2c(c1)S(=O)(=O)N(c1ccc(Br)cc1)CCO2)c1cnc(-c2ccccc2)[nH]1 [Compound 1331, N-(2-(4-bromophenyl)-1,1-dioxido-3,4-dihydro-2H-benzo[b][1,4,5]oxathiazepin-8-yl)-2-phenyl-1H-imidazole-5-carboxamide]
- cyst formation [2]: preventing cyst formation
